From ChEMBL document CHEMBL5614442, “Discovery, synthesis and biological evaluation of novel isoquinoline derivatives as potent indoleamine 2, 3-dioxygenase 1 and tryptophan 2, 3-dioxygenase dual inhibitors” (Eur J Med Chem, 2024)

Columns and labels:
Format in all cases: organism-based
Settings in all cases: in vivo, 336 h, time 14 day
[1] = Toxicity in male C57BL/6 mouse implanted with mouse B16-F10 cells assessed as body weight loss at 100 mg/kg, ip administered once daily for 14 days
[2] = Toxicity in male C57BL/6 mouse implanted with mouse B16-F10 cells assessed as effect on heart morphology at 100 mg/kg, ip administered once daily for 14 days by H and E staining based analysis
[3] = Toxicity in male C57BL/6 mouse implanted with mouse B16-F10 cells assessed as effect on liver morphology at 100 mg/kg, ip administered once daily for 14 days by H and E staining based analysis
[4] = Toxicity in male C57BL/6 mouse implanted with mouse B16-F10 cells assessed as effect on spleen morphology at 100 mg/kg, ip administered once daily for 14 days by H and E staining based analysis
[5] = Toxicity in male C57BL/6 mouse implanted with mouse B16-F10 cells assessed as effect on lung morphology at 100 mg/kg, ip administered once daily for 14 days by H and E staining based analysis
[6] = Toxicity in male C57BL/6 mouse implanted with mouse B16-F10 cells assessed as effect on kidney morphology at 100 mg/kg, ip administered once daily for 14 days by H and E staining based analysis

Measured: Activity

Cn1cc(C[C@H](N)C(=O)O)c2ccccc21 [(L)-1-METHYLTRYPTOPHAN]
Non-Toxic: all assays above
